Test results from patent US7455860B2, “Dietary supplement formulation for controlling inflammation and cancer” (Laila Nutraceuticals, priority 2005, dated 2008).
Values joined by “and” are separate entries in the source; they are usually repeats but may differ in a detail not shown here. Equal values may be shown once.

What was measured:
[1] = tested on: Freund's Adjuvant-Induced Arthritis; test: Freund's Adjuvant-Induced Arthritis in Wistar Albino rats (paw volume by Plethysmograph); type: in vivo
Description: Effect of 5-LOXIN compositions on Freund's Adjuvant-Induced Arthritis in Winstar Albino rats: Wistar Albino rats of either sex were selected randomly and divided into groups containing 6 rats (3 male and 3 female) each. The rats of treatment groups were administered orally a suspension of 5-LOXIN (15 mg/kg, p.o.) or glucosamine salt (135 mg/kg, p.o.) or curcuminoids (20 mg/kg, p.o.) or ginger (3 mg/kg, p.o.) or one fifth of a formulation containing unit doses of all the four ingredients [formulation I: 5-LOXIN (15 mg)+glucosamine (135 mg)+curcuminoids DP 95% (20 mg)+Ginger DP 15% total pungent compounds (3 mg)]or prednisolone (10 mg/kg, p.o.) in 0.5% CMC, for 30 days. The control group received 0.5% CMC. Following the drug treatment all animals were challenged, on 31st day, with 50 μl of complete Freund's adjuvant injection to the sub plantar region of right hind paw. The paw volume was measured before (V0) and after the injection of Freund's adjuvant at the end of 30, 60, 120, 180, 240 and 360 min by Plethysmograph. The paw oedema was measured everyday upto 17th day.

degenerative arthritis = conditions: treatment group; 20% in placebo group; cited from earlier work

| Compound | % protection ([1]; day 13, against control group mean oedema 0.478) | Day-13 E, ME (mean oedema of the group) ([1]; group mean, oral treatment for 30 days) | Paw Volume After Freund's Adjuvant, Day-13 E (oedema) ([1]; individual rat, Day-13 PV minus 0 hr, oral treatment for 30 days, hydrochloride) | Paw Volume After Freund's Adjuvant, Day-13 PV ([1]; individual rat, oral treatment for 30 days, adjuvant on 31st day, read on day 13, dose per sample in table, hydrochloride) | Improvement in degenerative arthritis (degenerative arthritis) |
| --- | --- | --- | --- | --- | --- |
| Cl.N[C@H]1C(O)O[C@H](CO)[C@@H](O)[C@@H]1O (some centres unmarked) [Glucosamine, glucosamine hydrochloride] | 37.94% | 0.30 mL | 0.37 mL and 0.3 mL and 0.22 mL | 1.56 mL and 1.59 mL and 1.53 mL |  |
| CS(C)(=O)=O [MSM, Methylsulfonylmethane] |  |  |  |  | 80% |
